Source: paper PMC6576746, “Rational discovery of dual-indication multi-target PDE/Kinase inhibitor for precision anti-cancer therapy using structural systems pharmacology” (PLoS Computational Biology, 2019)

Tests used:
Experiment in all cases: biochemical
Parameters in all cases: DiscoverX KinomeScan competition binding assay across human kinases; per cent of control at 10 and 100 uM
FGFR2 = FGFR2 (Homo sapiens, UniProt P21802); details: competition binding, % of control; read-out: Percent Control (100 uM Levosimendan)
How it was run: (§1)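 Binding is expressed as %control, normalised between positive and negative control signals. The compound (levosimendan) was tested at 10 μM and 100 μM in the DiscoverX KinomeScan competition binding format against human kinases.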

EIF2AK1 = EIF2AK1 (Homo sapiens, UniProt Q9BQI3); details: competition binding, % of control; read-out: Percent Control (100 uM Levosimendan)
How it was run: as §1

p38-alpha = target: T1, p38-alpha (Homo sapiens, UniProt Q16539); details: competition binding, % of control; read-out: Percent Control (100 uM Levosimendan)
T1 construct: gene MAPK14
How it was run: as §1

DRAK2 = target: T2, DRAK2 (Homo sapiens, UniProt O94768); details: competition binding, % of control
T2 construct: gene STK17B
How it was run: as §1

EPHA5 = EPHA5 (Homo sapiens, UniProt P54756); details: competition binding, % of control; read-out: Percent Control (100 uM Levosimendan)
How it was run: as §1

PIK3CA(H1047L) = PIK3CA(H1047L) (Homo sapiens, UniProt P42336, H1047L); details: competition binding, % of control; read-out: Percent Control (100 uM Levosimendan)
How it was run: as §1

p38-gamma = target: T3, p38-gamma (Homo sapiens, UniProt P53778); details: competition binding, % of control
T3 construct: gene MAPK12
How it was run: as §1

DYRK2 = DYRK2 (Homo sapiens, UniProt Q92630); details: competition binding, % of control; read-out: Percent Control (100 uM Levosimendan)
How it was run: as §1

ACVR2B = ACVR2B (Homo sapiens, UniProt Q13705); details: competition binding, % of control; read-out: Percent Control (100 uM Levosimendan)
How it was run: as §1

EPHA6 = EPHA6 (Homo sapiens, UniProt Q9UF33); details: competition binding, % of control; read-out: Percent Control (100 uM Levosimendan)
How it was run: as §1

ZAK = target: T4, ZAK (Homo sapiens, UniProt Q9NYL2); details: competition binding, % of control
T4 construct: gene MAP3K20
How it was run: as §1

FES = FES (Homo sapiens, UniProt P07332); details: competition binding, % of control; read-out: Percent Control (100 uM Levosimendan)
How it was run: as §1

BMPR2 = BMPR2 (Homo sapiens, UniProt Q13873); details: competition binding, % of control; read-out: Percent Control (100 uM Levosimendan)
How it was run: as §1

MEK6 = target: T5, MEK6 (Homo sapiens, UniProt P52564); details: competition binding, % of control; read-out: Percent Control (100 uM Levosimendan)
T5 construct: gene MAP2K6
How it was run: as §1

NIK = target: T6, NIK (Homo sapiens, UniProt Q99558); details: competition binding, % of control; read-out: Percent Control (100 uM Levosimendan)
T6 construct: gene MAP3K14
How it was run: as §1

GRK1 = GRK1 (Homo sapiens, UniProt Q15835); details: competition binding, % of control; read-out: Percent Control (100 uM Levosimendan)
How it was run: as §1

RIPK2 = RIPK2 (Homo sapiens, UniProt O43353); details: competition binding, % of control; read-out: Percent Control (100 uM Levosimendan)
How it was run: as §1

TAK1 = target: T7, TAK1 (Homo sapiens, UniProt O43318); details: competition binding, % of control; read-out: Percent Control (100 uM Levosimendan)
T7 construct: gene MAP3K7
How it was run: as §1

PRKR = target: T8, PRKR (Homo sapiens, UniProt P19525); details: competition binding, % of control; read-out: Percent Control (100 uM Levosimendan)
T8 construct: gene EIF2AK2
How it was run: as §1

[1] = read-out: Percent Control (10 uM Levosimendan)
[2] = read-out: Percent Control (100 uM Levosimendan)

T4 sequence (Q9NYL2 whole entry): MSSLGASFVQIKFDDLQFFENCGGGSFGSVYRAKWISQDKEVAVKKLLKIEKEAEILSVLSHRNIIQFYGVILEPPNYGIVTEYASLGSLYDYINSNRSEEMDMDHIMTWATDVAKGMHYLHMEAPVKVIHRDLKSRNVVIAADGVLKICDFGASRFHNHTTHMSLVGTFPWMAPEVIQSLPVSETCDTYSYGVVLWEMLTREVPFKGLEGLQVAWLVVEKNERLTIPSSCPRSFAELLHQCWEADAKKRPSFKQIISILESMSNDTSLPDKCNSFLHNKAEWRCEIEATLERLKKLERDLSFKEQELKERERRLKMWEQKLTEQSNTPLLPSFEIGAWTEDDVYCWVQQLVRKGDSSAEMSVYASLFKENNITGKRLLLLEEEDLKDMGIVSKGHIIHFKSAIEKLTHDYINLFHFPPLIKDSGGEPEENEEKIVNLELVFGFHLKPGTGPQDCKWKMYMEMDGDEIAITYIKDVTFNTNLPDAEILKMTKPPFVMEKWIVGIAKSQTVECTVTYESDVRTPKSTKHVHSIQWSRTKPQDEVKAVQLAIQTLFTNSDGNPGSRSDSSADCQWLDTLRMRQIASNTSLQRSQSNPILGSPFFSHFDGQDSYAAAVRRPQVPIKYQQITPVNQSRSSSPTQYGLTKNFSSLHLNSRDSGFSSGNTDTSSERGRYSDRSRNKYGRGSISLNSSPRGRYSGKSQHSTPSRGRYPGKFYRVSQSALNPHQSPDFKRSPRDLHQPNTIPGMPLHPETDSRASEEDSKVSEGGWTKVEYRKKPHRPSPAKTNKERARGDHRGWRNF
T2 sequence (O94768 whole entry): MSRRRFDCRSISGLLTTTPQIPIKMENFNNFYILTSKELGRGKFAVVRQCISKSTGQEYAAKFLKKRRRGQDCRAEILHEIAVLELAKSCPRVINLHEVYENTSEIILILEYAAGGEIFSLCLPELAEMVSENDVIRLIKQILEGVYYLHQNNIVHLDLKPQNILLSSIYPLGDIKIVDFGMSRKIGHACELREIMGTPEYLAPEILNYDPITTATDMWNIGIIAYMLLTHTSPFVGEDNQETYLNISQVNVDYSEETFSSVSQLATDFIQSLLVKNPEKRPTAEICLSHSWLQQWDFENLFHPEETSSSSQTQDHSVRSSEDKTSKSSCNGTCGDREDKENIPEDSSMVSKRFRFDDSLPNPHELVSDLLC
T3 sequence (P53778 whole entry): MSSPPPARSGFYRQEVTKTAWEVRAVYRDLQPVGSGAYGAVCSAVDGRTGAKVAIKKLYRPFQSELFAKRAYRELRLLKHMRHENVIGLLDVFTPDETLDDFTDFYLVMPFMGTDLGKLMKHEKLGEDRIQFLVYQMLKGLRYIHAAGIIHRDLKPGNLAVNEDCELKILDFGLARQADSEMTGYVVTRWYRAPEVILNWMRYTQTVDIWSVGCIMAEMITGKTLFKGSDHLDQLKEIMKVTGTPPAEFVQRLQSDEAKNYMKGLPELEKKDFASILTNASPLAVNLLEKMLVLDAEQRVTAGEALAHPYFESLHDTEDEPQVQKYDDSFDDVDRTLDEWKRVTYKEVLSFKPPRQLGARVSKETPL
T6 sequence (Q99558 whole entry): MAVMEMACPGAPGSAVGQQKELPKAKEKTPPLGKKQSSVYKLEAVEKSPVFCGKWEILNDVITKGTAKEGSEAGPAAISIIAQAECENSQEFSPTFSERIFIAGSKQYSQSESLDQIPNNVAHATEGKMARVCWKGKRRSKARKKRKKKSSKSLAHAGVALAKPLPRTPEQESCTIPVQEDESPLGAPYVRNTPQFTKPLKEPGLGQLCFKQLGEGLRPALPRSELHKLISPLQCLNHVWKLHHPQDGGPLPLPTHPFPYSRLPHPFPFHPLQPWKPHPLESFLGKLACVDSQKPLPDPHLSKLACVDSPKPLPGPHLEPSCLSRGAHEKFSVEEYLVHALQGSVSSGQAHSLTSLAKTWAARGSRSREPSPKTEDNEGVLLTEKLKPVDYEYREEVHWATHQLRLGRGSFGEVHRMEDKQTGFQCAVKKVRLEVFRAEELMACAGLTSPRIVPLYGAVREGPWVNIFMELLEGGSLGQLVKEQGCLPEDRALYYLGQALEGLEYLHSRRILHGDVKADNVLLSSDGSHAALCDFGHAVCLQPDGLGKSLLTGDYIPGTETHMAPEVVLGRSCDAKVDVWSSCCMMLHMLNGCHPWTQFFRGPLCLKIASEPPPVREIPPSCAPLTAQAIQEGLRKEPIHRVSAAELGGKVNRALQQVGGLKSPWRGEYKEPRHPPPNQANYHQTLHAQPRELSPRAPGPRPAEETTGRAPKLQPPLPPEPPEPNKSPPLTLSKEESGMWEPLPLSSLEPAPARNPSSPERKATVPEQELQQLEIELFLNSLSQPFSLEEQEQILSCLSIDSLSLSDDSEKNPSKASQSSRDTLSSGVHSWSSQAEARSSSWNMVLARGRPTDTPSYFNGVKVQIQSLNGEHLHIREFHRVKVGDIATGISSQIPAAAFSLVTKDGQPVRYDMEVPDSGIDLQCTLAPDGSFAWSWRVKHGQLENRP
T1 sequence (Q16539 whole entry): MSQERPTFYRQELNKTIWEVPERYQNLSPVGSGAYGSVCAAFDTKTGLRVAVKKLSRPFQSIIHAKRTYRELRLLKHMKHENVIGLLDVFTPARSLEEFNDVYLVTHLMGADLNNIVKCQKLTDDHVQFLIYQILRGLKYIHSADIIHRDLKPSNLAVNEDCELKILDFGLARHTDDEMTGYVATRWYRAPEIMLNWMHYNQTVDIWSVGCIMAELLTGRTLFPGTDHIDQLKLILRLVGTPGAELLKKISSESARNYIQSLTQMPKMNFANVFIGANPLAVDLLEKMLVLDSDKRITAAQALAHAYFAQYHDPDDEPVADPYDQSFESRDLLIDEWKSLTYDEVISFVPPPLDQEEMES
Sequence of PIK3CA(H1047L) (P42336 whole entry H1047L): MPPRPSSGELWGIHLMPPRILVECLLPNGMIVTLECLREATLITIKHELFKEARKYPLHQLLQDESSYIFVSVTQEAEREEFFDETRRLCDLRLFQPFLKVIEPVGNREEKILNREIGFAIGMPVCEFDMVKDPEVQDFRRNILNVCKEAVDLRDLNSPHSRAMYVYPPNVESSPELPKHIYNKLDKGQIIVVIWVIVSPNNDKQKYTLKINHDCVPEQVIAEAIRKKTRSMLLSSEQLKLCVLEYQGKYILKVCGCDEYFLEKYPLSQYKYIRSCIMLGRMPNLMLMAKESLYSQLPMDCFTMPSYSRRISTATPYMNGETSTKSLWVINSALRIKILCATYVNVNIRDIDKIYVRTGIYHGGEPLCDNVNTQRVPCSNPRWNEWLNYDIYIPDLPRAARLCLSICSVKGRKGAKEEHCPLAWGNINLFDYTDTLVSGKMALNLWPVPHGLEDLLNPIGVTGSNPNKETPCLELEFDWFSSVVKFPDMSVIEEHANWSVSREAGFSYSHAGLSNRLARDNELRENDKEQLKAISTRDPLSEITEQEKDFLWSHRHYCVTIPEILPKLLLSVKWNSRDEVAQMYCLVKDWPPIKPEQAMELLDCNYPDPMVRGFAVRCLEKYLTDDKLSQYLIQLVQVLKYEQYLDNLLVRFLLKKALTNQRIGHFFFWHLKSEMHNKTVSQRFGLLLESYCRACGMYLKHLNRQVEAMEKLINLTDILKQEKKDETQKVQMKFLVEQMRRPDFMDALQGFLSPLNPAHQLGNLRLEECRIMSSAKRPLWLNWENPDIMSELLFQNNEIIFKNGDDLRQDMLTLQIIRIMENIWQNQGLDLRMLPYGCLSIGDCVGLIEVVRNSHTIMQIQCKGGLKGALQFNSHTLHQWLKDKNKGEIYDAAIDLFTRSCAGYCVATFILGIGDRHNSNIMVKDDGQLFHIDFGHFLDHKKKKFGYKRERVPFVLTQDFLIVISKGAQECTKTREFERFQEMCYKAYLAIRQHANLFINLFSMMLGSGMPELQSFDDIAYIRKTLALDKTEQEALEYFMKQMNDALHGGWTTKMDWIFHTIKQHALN
Sequence of ACVR2B (Q13705 whole entry): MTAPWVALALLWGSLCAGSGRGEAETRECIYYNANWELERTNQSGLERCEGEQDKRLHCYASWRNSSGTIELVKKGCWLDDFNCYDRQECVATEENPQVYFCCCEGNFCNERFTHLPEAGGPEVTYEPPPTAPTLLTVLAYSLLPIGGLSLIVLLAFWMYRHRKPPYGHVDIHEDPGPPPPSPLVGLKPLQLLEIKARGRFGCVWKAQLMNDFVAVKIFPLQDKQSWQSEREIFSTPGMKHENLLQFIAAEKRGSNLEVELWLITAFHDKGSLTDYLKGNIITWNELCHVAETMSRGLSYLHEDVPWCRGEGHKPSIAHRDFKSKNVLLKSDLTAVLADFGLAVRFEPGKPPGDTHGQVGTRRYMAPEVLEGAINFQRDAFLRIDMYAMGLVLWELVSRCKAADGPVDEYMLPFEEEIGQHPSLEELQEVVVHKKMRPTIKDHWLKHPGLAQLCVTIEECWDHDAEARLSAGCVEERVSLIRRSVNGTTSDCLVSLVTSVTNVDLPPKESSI
T8 sequence (P19525 whole entry): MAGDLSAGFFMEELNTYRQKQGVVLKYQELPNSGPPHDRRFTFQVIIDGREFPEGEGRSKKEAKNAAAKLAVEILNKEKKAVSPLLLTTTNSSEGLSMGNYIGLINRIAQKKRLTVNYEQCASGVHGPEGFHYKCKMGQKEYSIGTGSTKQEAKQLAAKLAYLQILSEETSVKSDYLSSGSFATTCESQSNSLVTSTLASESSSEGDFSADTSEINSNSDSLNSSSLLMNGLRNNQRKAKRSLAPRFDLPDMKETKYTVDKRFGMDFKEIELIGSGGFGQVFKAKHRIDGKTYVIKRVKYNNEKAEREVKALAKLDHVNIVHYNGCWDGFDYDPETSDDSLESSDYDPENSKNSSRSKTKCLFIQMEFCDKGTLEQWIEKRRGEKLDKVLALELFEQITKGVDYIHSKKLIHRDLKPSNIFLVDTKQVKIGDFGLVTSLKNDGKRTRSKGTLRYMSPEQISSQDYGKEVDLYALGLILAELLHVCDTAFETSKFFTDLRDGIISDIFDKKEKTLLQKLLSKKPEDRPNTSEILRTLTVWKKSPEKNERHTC

`C[C@@H]1CC(=O)NN=C1c1ccc(NN=C(C#N)C#N)cc1` [levosimendan] gave a remaining binding at 100 µM (FGFR2) of 61%, a remaining binding at 100 µM (EIF2AK1) of 100% and a remaining binding at 100 µM (p38-alpha) of 97%. The remaining binding at 10 µM (DRAK2; [1]) was 99%, the remaining binding at 100 µM (DRAK2; [2]) was 20% and the remaining binding at 100 µM (EPHA5) was 100%. The remaining binding at 100 µM (PIK3CA(H1047L)) was 100%, the remaining binding at 10 µM (p38-gamma; [1]) was 92% and the remaining binding at 100 µM (p38-gamma; [2]) was 52%. For the same compound, the remaining binding at 100 µM (DYRK2) was 85%, the remaining binding at 100 µM (ACVR2B) was 100% and the remaining binding at 100 µM (EPHA6) was 98%. It also gave a remaining binding at 10 µM (ZAK; [1]) of 100%, a remaining binding at 100 µM (ZAK; [2]) of 52% and a remaining binding at 100 µM (FES) of 76%. The remaining binding at 100 µM (BMPR2) was 100%, the remaining binding at 100 µM (MEK6) was 100% and the remaining binding at 100 µM (NIK) was 83%. It also gave a remaining binding at 100 µM (GRK1) of 67%, a remaining binding at 100 µM (RIPK2) of 91% and a remaining binding at 100 µM (TAK1) of 78%. It also gave a remaining binding at 100 µM (PRKR) of 96%.
